Assay [1] has as its system INS1. The experiment in a line: INS-1E survival protection against cytokine death – cell-based, luminescence, retest, dose response (AID 449756).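 Note: cell death triggered by IL-1 beta plus TNF-alpha plus IFN-gamma mixture; protective hits raise ATP signal compared with cytokine alone wells.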 To be noted: Rattus norvegicus, INS1. Type of assay: functional.
Assay [2] in a line: NIH3T3 cell viability loss – ATP luminescence, mouse fibroblasts, counter-screen, dose response (AID 2010).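 Note: cells exposed to compound for about 90 hours before reading.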 Type of assay: functional, cell-based.
The target in assay [3] is G-protein coupled receptor 55 (Homo sapiens, UniProt Q9Y2T6). The experiment in a line: inhibition of LPI-stimulated GPR55 beta-arrestin translocation – imaging, U2OS, beta-arrestin-GFP, LPI agonist, primary screen (AID 2013).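 Note: antagonist potency measured as reduced agonist-driven arrestin aggregation.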 Type of assay: functional.
Assay [4] is described as follows: Trypanosoma cruzi growth suppression in host cells – NIH3T3 host cells, beta-gal luminescence, confirmation (AID 2044).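 Note: intracellular parasites grown in NIH/3T3 mouse fibroblasts as host cells; luminescent beta-galactosidase reporter signal from transgenic T. cruzi replicating inside host cells; inhibitors lower the luminescence signal.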 Type of assay: functional, cell-based.
Assay [5] addresses T1, Coagulation factor XII (Homo sapiens, UniProt P00748).
T1 sequence (P00748 whole entry): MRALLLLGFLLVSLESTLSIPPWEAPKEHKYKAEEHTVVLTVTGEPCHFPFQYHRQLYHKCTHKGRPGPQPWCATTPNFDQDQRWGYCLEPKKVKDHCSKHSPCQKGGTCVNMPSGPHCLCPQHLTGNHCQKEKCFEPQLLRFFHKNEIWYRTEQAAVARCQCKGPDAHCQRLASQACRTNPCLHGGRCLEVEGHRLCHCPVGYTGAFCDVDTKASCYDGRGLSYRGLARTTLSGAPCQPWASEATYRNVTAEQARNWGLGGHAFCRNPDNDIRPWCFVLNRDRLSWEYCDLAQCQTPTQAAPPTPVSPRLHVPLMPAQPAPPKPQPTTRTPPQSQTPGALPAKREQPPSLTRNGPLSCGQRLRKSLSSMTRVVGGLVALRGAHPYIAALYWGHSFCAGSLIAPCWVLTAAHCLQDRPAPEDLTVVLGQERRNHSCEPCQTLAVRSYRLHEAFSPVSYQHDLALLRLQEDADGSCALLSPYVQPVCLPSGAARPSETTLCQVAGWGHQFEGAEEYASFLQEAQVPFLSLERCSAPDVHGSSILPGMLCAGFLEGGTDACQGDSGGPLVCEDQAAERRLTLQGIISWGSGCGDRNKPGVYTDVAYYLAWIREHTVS
As to the kind of experiment: activated coagulation factor XII inhibitor potency, concentration-effect curve, cell-free (AID 716). Type of assay: functional.

Assay [6] is described as follows: HepG2 cell cytotoxicity, dose response, cytotoxicity control for non-replicating M. tuberculosis project (AID 489018). Type of assay: functional. To be noted: Mycobacterium tuberculosis.
A short description of assay [7]: THP-1 cell cytotoxicity, dose response, cytotoxicity control for non-replicating M. tuberculosis project (AID 489025). Type of assay: functional.
Assay [8] in a line: cells. Type of assay: functional.
Assay [9] deals with Beta-galactosidase (Escherichia coli, UniProt Q8VNN2). Type of assay: functional.
The target of assay [10] is T2, Kappa-type opioid receptor (Homo sapiens, UniProt P41145). Type of assay: functional.
The nature of assay [11]: Luminescence Cell-Based Dose Response HTS to Identify Inhibitors of 5'UTR Stem-Loop Driven Prion Protein mRNA Translation in H4 Neuroglioblastoma Cells. [Related pubchem assays: 1827 (Project Summary), 1813 (Primary HTS)]. Type of assay: functional.
The target of assay [12] is T2, Kappa-type opioid receptor. Type of assay: functional. The source holds these as a separate data set.
A short description of assay [13]: alpha-synuclein stem-loop luciferase translation blockers – H4 neuroglioma cells, luminescence, confirmation (AID 1988). Type of assay: functional, cell-based.

Each structure is given as a SMILES string. Activity calls are given as the source filed them. A value given as a limit tells only on which side of the number the result lay.

T2 sequence (P41145 whole entry): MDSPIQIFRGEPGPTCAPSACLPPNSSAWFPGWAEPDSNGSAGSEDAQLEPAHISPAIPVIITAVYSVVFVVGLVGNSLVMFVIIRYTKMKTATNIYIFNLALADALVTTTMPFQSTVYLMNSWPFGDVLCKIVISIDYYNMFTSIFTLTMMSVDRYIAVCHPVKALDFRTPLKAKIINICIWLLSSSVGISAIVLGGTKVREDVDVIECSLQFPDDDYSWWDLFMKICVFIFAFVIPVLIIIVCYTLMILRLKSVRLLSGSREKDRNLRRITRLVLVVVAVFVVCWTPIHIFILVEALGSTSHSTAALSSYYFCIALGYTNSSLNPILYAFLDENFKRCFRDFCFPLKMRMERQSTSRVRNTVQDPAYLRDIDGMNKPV
G-protein coupled receptor 55, sequence (Q9Y2T6 whole entry): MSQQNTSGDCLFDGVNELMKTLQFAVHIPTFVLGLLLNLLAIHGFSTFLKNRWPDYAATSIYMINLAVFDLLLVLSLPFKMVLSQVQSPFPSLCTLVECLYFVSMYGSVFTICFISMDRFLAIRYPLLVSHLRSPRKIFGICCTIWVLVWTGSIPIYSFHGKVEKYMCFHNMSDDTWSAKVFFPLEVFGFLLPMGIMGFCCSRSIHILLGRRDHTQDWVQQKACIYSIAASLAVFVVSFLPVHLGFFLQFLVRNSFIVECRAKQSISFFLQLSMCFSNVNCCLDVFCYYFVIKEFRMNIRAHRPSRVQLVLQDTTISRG
Beta-galactosidase, sequence (Q8VNN2 whole entry): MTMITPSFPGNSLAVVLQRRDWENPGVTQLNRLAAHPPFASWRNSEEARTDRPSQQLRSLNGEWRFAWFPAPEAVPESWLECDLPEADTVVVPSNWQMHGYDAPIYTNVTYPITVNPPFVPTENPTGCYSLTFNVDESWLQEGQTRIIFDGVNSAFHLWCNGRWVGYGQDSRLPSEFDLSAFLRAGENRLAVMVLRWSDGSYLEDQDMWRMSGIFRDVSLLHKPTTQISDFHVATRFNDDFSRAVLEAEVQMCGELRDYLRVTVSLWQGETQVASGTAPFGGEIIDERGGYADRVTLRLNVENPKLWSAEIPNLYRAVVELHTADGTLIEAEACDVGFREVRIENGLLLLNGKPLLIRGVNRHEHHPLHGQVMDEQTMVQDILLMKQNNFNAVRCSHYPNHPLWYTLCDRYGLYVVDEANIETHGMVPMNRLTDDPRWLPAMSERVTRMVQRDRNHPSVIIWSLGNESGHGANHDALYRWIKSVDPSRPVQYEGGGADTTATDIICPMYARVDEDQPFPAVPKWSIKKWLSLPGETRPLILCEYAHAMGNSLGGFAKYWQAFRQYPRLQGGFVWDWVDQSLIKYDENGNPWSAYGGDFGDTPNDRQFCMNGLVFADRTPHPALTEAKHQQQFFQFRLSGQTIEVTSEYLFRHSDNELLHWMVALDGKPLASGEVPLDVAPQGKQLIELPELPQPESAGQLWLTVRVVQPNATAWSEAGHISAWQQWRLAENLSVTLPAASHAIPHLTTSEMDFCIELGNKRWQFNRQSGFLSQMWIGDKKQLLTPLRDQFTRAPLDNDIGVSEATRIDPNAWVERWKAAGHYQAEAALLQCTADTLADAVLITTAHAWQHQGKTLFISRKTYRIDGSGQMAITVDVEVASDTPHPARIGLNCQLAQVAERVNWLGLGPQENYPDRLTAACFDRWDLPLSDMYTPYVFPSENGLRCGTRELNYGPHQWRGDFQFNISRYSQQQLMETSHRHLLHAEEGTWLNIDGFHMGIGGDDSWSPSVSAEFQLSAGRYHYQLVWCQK

What is called AC50 is the concentration giving half of the maximal activity seen. The EC50 is the concentration at which the effect is half-maximal. In general, IC50 refers to the concentration that inhibits the measured activity by half. `COc1ccc(CNCCC(c2ccccc2)c2ccc3c(c2)OCO3)cc1` (stereo not given): the AC50 in [1] was 9.28 µM (active). In addition, the values for the concentration giving a half-maximal response (EC50) in assay [2] and in assay [4] were > 60 µM (not active) and 3.27 µM (active), respectively. In assay [3], the IC50 is 0.965 µM (active).
With `Cc1noc(C)c1C(=O)NC(C)c1ccc2c(c1)OCO2` (stereo not given), the IC50 in [5] was > 50 µM (inactive).
Same read-out and setting: the result for `O=C(CN1C(=O)C2C3C=CC(C3)C2C1=O)NCCC1=CCCCC1` (stereo not given) reads > 50 µM (inactive).
For `COC(=O)C1=CN(C(C)C)C=C(C(=O)OC)C1c1cc2c(cc1Br)OCO2`, the IC50 in assay [3] was 4.97 µM (active).
As usually defined, the CC50 is the concentration at which the toxic effect on the cells reaches its halfway point. As for `Clc1c(OCCCn2ccnc2)ccc2ccccc12`, the CC50 in assay [6] is > 20 µM (active); in assay [7], 37.1 µM (active). For the same molecule, the concentration for a half-maximal effect (EC50) in assay [2] is > 60 µM (not active); in assay [4] it was 0.708 µM (active). Besides, the IC50 in [8] was 9.76 µM (active).
Consider `Fc1ccccc1/C=N/Nc1nc(-c2ccccn2)nc2ccccc12`, for which the AC50 in [1] was 0.984 µM (active). The EC50 in assay [9] was > 31.5 µM (inactive); in assay [2] it was 54.9 µM (active); in assay [11] it was 1.03 µM (active); in assay [4], 0.357 µM (active); in [13] it was 0.456 µM (active). Besides, the results for the IC50 in assay [10] and in [12] were greater than 32 µM and 6.19 µM (active), respectively.

(Values after ChEMBL document CHEMBL1201862, “PubChem BioAssay data set” (2004).)
